# Experiments:
# Type in all cases: in vivo, human
# [1] = test system: MS patients in the relapsing and remitting course of the disease (RRMS); test: Phase 2 trial: annualized confirmed relapse rate (ARR)
# Description: The study enrolled MS patients in the relapsing and remitting course of the disease (RRMS) who had been diagnosed within ≤3 years of enrollment. Patients had to be treatment-naïve, have ≥1 gadolinium-positive lesion within 12 months of enrollment, and have an Expanded Disability Status Score (EDSS) of 0-6 at screening. Part 1 was a double-blind, parallel-group, 6-month study. Patients were randomized to oral CHS-131 at 3 mg or 1 mg or placebo in a 1:1:1 ratio at 21 sites in Russia. Monthly MRIs were read in a blinded fashion at the Buffalo Neuroimaging and Analysis Center, Buffalo, N.Y., USA. Part 2 is an open label, 6-month, safety extension study, in which all subjects transition to 1 mg CHS-131 daily, to evaluate clinical response, CE lesions on MM, and safety. The ARR was lower for both 3 mg CHS-131 (0.26) and 1 mg (0.28) as compared with placebo (0.35). Thus, administering CHS-131 reduces the rate at which relapses of worsening neurological function (e.g. flare-ups or exacerbations) occur. Put otherwise, administration of CHS-131 increases the time between relapses.
# [2] = test system: MS patients in the relapsing and remitting course of the disease (RRMS); test: Trend line of change in cortical volume versus EDSS scores; conditions: 6-month time point
# From the text: To evaluate the connection between cortical volume loss and dysfunction, the reduction in volume loss was compared to EDSS scores of the MS patients. FIGS. 5 and 6 show the relationship between the change in cortical volume and EDSS scores at 3 months and 6 months, respectively.
# [3] = test system: MS patients in the relapsing and remitting course of the disease (RRMS); test: Slope of cortical atrophy at six months as a function of CE lesion number; conditions: n=70
# Description: To evaluate the connection between the reduction in cortical volume loss and CHS-131 treatment, cortical volume was compared to observed CE lesion in the MS patients. […] The slopes of cortical atrophy at six months as a function of CE lesion number at six months was plotted for the placebo group (n=69), the CHS-131 1 mg/day group (n=70), and the CHS-131 3 mg/day group (n=70). For the placebo, 1 mg/day, and 3 mg/day groups the slopes were: −0.040391, −0.019631, and −0.001783, respectively. […] Thus, the reduction in CE lesions as a result of CHS-131 treatment is correlated with a reduction in the loss of cortical volume in MS patients.
compound,measurement,setting,value
O=S(=O)(Nc1cc(Cl)c(Oc2cnc3ccccc3c2)c(Cl)c1)c1ccc(Cl)cc1Cl [CHS-131],Annualized Confirmed Relapse Rate (ARR),[1]; 1 mg,0.28
same,Annualized Confirmed Relapse Rate (ARR),[1]; 3 mg,0.26
same,"trend line slope, change in cortical volume vs EDSS score",[2]; 1 mg,−0.138
same,"trend line slope, change in cortical volume vs EDSS score",[2]; 3 mg,0.080
same,slope of cortical atrophy at six months as a function of CE lesion number,[3]; 1 mg/day,−0.01963
same,slope of cortical atrophy at six months as a function of CE lesion number,[3]; 3 mg/day,−0.001783

# Reference: US20190224186A1, “TREATMENT OF MULTIPLE SCLEROSIS WITH CHS-131” (InteKrin Therapeutics, Inc., priority 2016, published 2019)
